Results published in patent publication US20260083769A1, “2-Aminopropane-1,3-Diol-Capped Cationic Peptoids for Nucleic Acid Delivery” (NUTCRACKER THERAPEUTICS, INC., priority 2022, published 2026).
Where two headings read alike, the source gives them in different places. Where a SMILES comes first, the peptide text is derived from it. [ ]: non-standard residue; d: D form. Gly(Nα-oleyl) = CCCCCCCC/C=C\CCCCCCCCNCC(=O)O; Gly(N-dodecyl) = CCCCCCCCCCCCNCC(=O)O; N(CH(CH2OH)2)Gly = O=C(O)CNC(CO)CO; N(octyl)Gly = CCCCCCCCNCC(=O)O; NDecylGly = CCCCCCCCCCNCC(=O)O; NHexGly = CCCCCCNCC(=O)O

How the values were obtained:
[1] = Percent encapsulated mRNA, RiboGreen assay; type: physicochemical
Method: Percent encapsulation. The percentage of mRNA encapsulated within the delivery vehicle complexes containing Fluc mRNA was determined using a modified RiboGreen® assay. In general, formulated mRNA samples were diluted to 500 ng/ml in Tris-EDTA buffer with or without Triton-X™. RiboGreen® (Invitrogen) was added at a 200-fold dilution, and the plate was incubated for 5 minutes. Fluorescence was measured at Ex. […]/Em. 520 nm and encapsulated mRNA was calculated by taking the ratio of fluorescence for non-lysed particles versus lysed particles.
The mRNA concentration and the percentage of encapsulated mRNA were determined using a fluorescence-based Quant-iT™ RiboGreen® RNA Reagent Kit using a literature procedure. To determine the mRNA concentration, delivery vehicles were incubated with 2% Triton™ X-100 for 10 min to release entrapped mRNA, followed by addition of RiboGreen® RNA reagent. The fluorescence intensity of mRNA-RiboGreen® reagent complex (excitation at 485 nm and emission at 530 nm) was detected using a microplate reader. The ratio of fluorescence without and with Triton™ X-100 were used to calculate the percentage of encapsulated mRNA.

[2] = Particle size and polydispersity (PDI) of delivery vehicles by dynamic light scattering; type: physicochemical
Method: The resulting delivery vehicle complexes were evaluated by dynamic light scattering (DLS) to determine the volume average particle size/diameter (nm) and the size polydispersity index (PDI) within the delivery vehicle complex.
Particle size. Particle sizes and size distributions were measured using a Wyatt DynaPro® Plate Reader III. In general, formulated samples were diluted to 2 ng/μL in 100 µL PBS. Data is reported as the hydrodynamic diameter (in nm) of the cumulant fit of the correlation function, and the polydispersity of that measurement.
In one particular instance, the size and polydispersity (PDI) of delivery vehicles was measured by dynamic light scattering in PBS using a DynaPro® plate reader III. The zeta potential of delivery vehicles was determined using Nano-ZS™ particle analyzer. Zeta sample was diluted to 30 uM total lipid in a weakly buffered solution of 10 mM HEPES, 10 mM MES, 10 mM ammonium acetate pH 7. Measurements were collected in duplicate for over 30 run with the voltage manually set to […]

[3] = Apparent particle pKa, TNS fluorescence assay; type: physicochemical; settings: Table 5; apparent particle pKa of delivery vehicle
Method: The apparent particle pKa was assessed by a TNS fluorescence assay. Briefly, particles were diluted to 130 uM total lipid in TNS buffer ranging in pH 3-11 for 10 minutes with […] of TNS probe. The fluorescence was measured at room temperature in a plate reader ex 320/em 445. Fluorescence intensity was normalized to the minimal and maximal values and the pKa was determined by a 3 parameter fit to determine the half maximum of the curve.

[4] = RBC hemolysis as metric for fusogenicity; type: cell-based; settings: sheep red blood cells (RBCs), 5% v/v
Method: RBC hemolysis was used as a metric for fusogenicity of LNPs at low pH. […] Particles were diluted to […] total lipid in well with 5% RBC solution and incubated at 37° C. for 45 min. Supernatant was collected and absorbance read on a microplate reader at 425 nm. Fusion was normalized to a fully lysed sample with 2% Triton™ and a buffer-only control. % hemolysis=100*[(ABS T-background)−(ABS sample-background)/(ABS T-background)].

[5] = Table 5, delivery vehicle comprising the peptoid, Formulation D22, fLuc mRNA
[6] = Table 5, delivery vehicle, 37° C. 45 min, pH 5, read-out: Hemolysis at pH 5
[7] = Table 5, delivery vehicle, 37° C. 45 min, pH 7, read-out: Hemolysis at pH 7
[8] = Table 6, comparative peptoid delivery vehicle
[9] = Table 6, comparative peptoid delivery vehicle, pH 5, read-out: Hemolysis at pH 5
[10] = Table 6, comparative peptoid delivery vehicle, pH 7, read-out: Hemolysis at pH 7

SMILES	% Encapsulation [1, 5] [%]	PDI [2, 5]	Particle Size (nm) [2, 5] [nm]	pKa (TNS) [3]	hemolysis at 45 min, 150 mM total lipid [4, 6] [%]	hemolysis at 45 min, 150 mM total lipid [4, 7] [%]	% Encapsulation [1, 8] [%]	PDI [2, 8]	Particle Size (nm) [2, 8] [nm]	hemolysis at 45 min, 150 mM total lipid [4, 9] [%]	hemolysis at 45 min, 150 mM total lipid [4, 10] [%]
CCCCCCCC/C=C\CCCCCCCCN(CC(=O)N(CCCCCCCCCCCC)CC(N)=O)C(=O)CN(CCCCCCCCCCCC)C(=O)CNC(CO)CO [Compound 4] (H-[N(CH(CH2OH)2)Gly][Gly(N-dodecyl)][Gly(Nα-oleyl)][Gly(N-dodecyl)]-NH2)	12.3	Multimodal	631.3								
CCCCCCCCCCN(CC(N)=O)C(=O)CN(CCCCCCCCCC)C(=O)CN(CCCCCCCCCC)C(=O)CN(CC(CC)CCCC)C(=O)CN(CCCCCCCCCC)C(=O)CN(CCCCCCCCCC)C(=O)CN(CCCCCCCCCC)C(=O)CN(CC(CC)CCCC)C(=O)CNC(CO)CO (stereo not shown) [Compound 8]				5.786	0.5	-0.1					
CCCCCCCCN(CC(N)=O)C(=O)CN(CCCCCCCC)C(=O)CN(CCCCCCCC)C(=O)CN(CC(CC)CCCC)C(=O)CN(CCCCCCCC)C(=O)CN(CCCCCCCC)C(=O)CN(CCCCCCCC)C(=O)CN(CC(CC)CCCC)C(=O)CNC(CO)CO (stereo not shown) [Compound 11]	66.1	0.111	106.6								
CCCCCCCCCCCCN(CC(=O)N(CC(=O)N(CCCCCCCCCCCC)CC(=O)N(CC(N)=O)CC(CC)CCCC)CC(CC)CCCC)C(=O)CNC(CO)CO (stereo not shown) [Compound 23]	2.3	Multimodal	1269.5								
CCCCCCCCN(CC(=O)N(CCCCCCCC)CC(=O)N(CCCCCC)CC(=O)N(CCCCCCCC)CC(=O)N(CCCCCCCC)CC(=O)N(CCCCCC)CC(N)=O)C(=O)CNC(CO)CO [Compound 25] (H-[N(CH(CH2OH)2)Gly][N(octyl)Gly][N(octyl)Gly][NHexGly][N(octyl)Gly][N(octyl)Gly][NHexGly]-NH2)	24.3	Multimodal	2220.3		94.6	94.7					
CCCCCCCCCCN(CC(N)=O)C(=O)CN(CCCCCCCC)C(=O)CN(CCCCCCCC)C(=O)CN(CCCCCCCCCC)C(=O)CN(CCCCCCCC)C(=O)CN(CCCCCCCC)C(=O)CNC(CO)CO [Compound 26] (H-[N(CH(CH2OH)2)Gly][N(octyl)Gly][N(octyl)Gly][NDecylGly][N(octyl)Gly][N(octyl)Gly][NDecylGly]-NH2)	66.1	Multimodal	421.9								
CCCCCCCCCCN(CC(=O)N(CCCCCC)CC(N)=O)C(=O)CN(CCCCCCCC)C(=O)CN(CCCCCC)C(=O)CN(CCCCCCCCCC)C(=O)CN(CCCCCCCC)C(=O)CNC(CO)CO [Compound 32] (H-[N(CH(CH2OH)2)Gly][N(octyl)Gly][NDecylGly][NHexGly][N(octyl)Gly][NDecylGly][NHexGly]-NH2)	23.3	Multimodal	692.4								
CCCCCCCCCCCCN(CC(N)=O)C(=O)CN(CCCCCCCCCCCC)C(=O)CN(CCCCCCCCCCCC)C(=O)CN(CCCCCCCCCCCC)C(=O)CNCCN [Compound C1, reference compound]							86.6	0.206	61.3	-15.1	39.2
CCCCCCCCCCCCN(CC(N)=O)C(=O)CN(CCCCCCCCCCCC)C(=O)CN(CCCCCCCCCCCC)C(=O)CN(CCCCCCCCCCCC)C(=O)CNCCCO [Compound C2, reference compound]							92.2	0.179	67.0	10.6	37.2
CCCCCCCCCCCCN(CC(N)=O)C(=O)CN(CCCCCCCCCCCC)C(=O)CN(CCCCCCCCCCCC)C(=O)CN(CCCCCCCCCCCC)C(=O)CNCCO [Compound C3, reference compound]							87.5	0.196	65.3	24.4	51.1
CCCCCCCCCCCCN(CC(N)=O)C(=O)CN(CCCCCCCCCCCC)C(=O)CN(CCCCCCCCCCCC)C(=O)CN(CCCCCCCCCCCC)C(=O)CN(CCO)CCO [Compound C4, reference compound]							90.5	0.186	67.7	4.9	12
CCCCCCCCCCCCN(CC(N)=O)C(=O)CN(CCCCCCCCCCCC)C(=O)CN(CCCCCCCCCCCC)C(=O)CN(CCCCCCCCCCCC)C(=O)CNCCCN [Compound C5, reference compound]							97.5	0.135	57.3	-15.6	39.8
CCCCCCCCCCCCN(CC(N)=O)C(=O)CN(CCCCCCCCCCCC)C(=O)CN(CCCCCCCCCCCC)C(=O)CN(CCCCCCCCCCCC)C(=O)CNCCOC [Compound C6, reference compound]							92.6	0.223	67.1	4.9	22.7
CCCCCCCCCCCCN(CC(N)=O)C(=O)CN(CCCCCCCCCCCC)C(=O)CN(CCCCCCCCCCCC)C(=O)CN(CCCCCCCCCCCC)C(=O)CNCCCOC [Compound C7, reference compound]							93.1	0.219	71.3	31.6	65.5
CCCCCCCCCCCCN(CC(N)=O)C(=O)CN(CCCCCCCCCCCC)C(=O)CN(CCCCCCCCCCCC)C(=O)CN(CCCCCCCCCCCC)C(=O)CNCCCn1ccnc1 [Compound C8, reference compound]							93.5	0.192	60.2	2.3	8.1
CCCCCCCCCCCCN(CC(N)=O)C(=O)CN(CCCCCCCCCCCC)C(=O)CN(CCCCCCCCCCCC)C(=O)CN(CCCCCCCCCCCC)C(=O)CNCCCn1ccnc1C [Compound C9, reference compound]							98.8	0.201	63.0	0.7	2.4
CCCCCCCCCCCCN(CC(N)=O)C(=O)CN(CCCCCCCCCCCC)C(=O)CN(CCCCCCCCCCCC)C(=O)CN(CCCCCCCCCCCC)C(=O)CNCCCN1CCOCC1 [Compound C10, reference compound]							86.6	0.520	84.6	0.6	1
CCCCCCCCCCCCN(CC(N)=O)C(=O)CN(CCCCCCCCCCCC)C(=O)CN(CCCCCCCCCCCC)C(=O)CN(CCCCCCCCCCCC)C(=O)CNCCCN1CCCCC1 [Compound C11, reference compound]							92.4	0.179	70.2	9.6	10.2
CCCCCCCCCCCCN(CC(N)=O)C(=O)CN(CCCCCCCCCCCC)C(=O)CN(CCCCCCCCCCCC)C(=O)CN(CCCCCCCCCCCC)C(=O)CN(CC)CCO [Compound C12, reference compound]							95.9	0.175	62.4	-2.4	3.9
CCCCCCCCCCCCN(CC(N)=O)C(=O)CN(CCCCCCCCCCCC)C(=O)CN(CCCCCCCCCCCC)C(=O)CN(CCCCCCCCCCCC)C(=O)CNCCN(C)C [Compound C13, reference compound]							95.4	0.180	57.6	-12.3	8.2
